Reference: patent publication US10285794B2, “Hernia repair device and methods” (priority 2016, dated 2019)

Tests used:
[1] = tested on: myofibroblast (scar cell) formation; assay: TGFβ-induced myofibroblast formation (expression of αSMA, calponin and collagen); format: cell-based; conditions: hallmarks of myofibroblasts
Text: Therapeutic options to treat excessive scarring are limited and most are not proven to be effective. Salinomycin is a novel small molecule that blocks myofibroblast (scar cell) formation.

[2] = tested on: myofibroblast function (cellular contraction); format: cell-based
Text: These novel studies highlight the potential of salinomycin to serve as the basis for new anti-scarring agents.

[3] = tested on: human mesenchymal stem cells, human fibroblasts and fibroblasts from mouse, cat and pig; assay: cell culture studies of myofibroblast formation and function; format: cell-based
[4] = tested on: peri-implant capsular scarring; assay: silicone discs impregnated with salinomycin placed submuscular in mice, Masson's trichrome staining; format: in vivo, mouse
Text: Salinomycin can also be used effectively as a small molecule coating on silicone or temporary dressings such as PermeaDerm. […] In this study, silicone discs were impregnated with salinomycin or a control solvent and placed submuscular in mice. Surrounding tissue was harvested at 16 weeks and tissue sections were stained with Masson's trichrome.

[5] = rabbit study with cutaneous injection (toxicity, irritation, skin sensitization); format: in vivo
[6] = tested on: Gram-positive bacteria, including MRSA, MRSE and Mycobacterium tuberculosis; conditions: cited from earlier work
fungi such as Candida = conditions: cited from earlier work
Gram-negative bacteria = conditions: cited from earlier work

CC[C@@H](C(=O)[C@@H](C)[C@@H](O)[C@H](C)[C@@H]1O[C@@H]([C@@H](CC)C(=O)O)CC[C@@H]1C)[C@H]1O[C@]2(C=C[C@@H](O)[C@]3(CC[C@@](C)([C@H]4CC[C@](O)(CC)[C@H](C)O4)O3)O2)[C@H](C)C[C@@H]1C [Salinomycin]
ability of TGFβ to induce expression of αSMA, calponin and collagen [1]: potently blocks
myofibroblast function (cellular contraction) [2]: effectively blocks
viability [2]: without affecting viability
doses that block myofibroblast formation and function [3]: 50 to 200 nM
peri-implant capsular scarring ([4]; silicone implants impregnated with 1 micromolar coating solution, mouse): dramatically reduce
scar formation (capsule thickness) ([4]; submuscular silicone discs in mice, tissue harvested at 16 weeks, Masson's trichrome): significantly reduced scar formation
irritation ([5]; in vivo): non-irritating
reactivity (signs of erythema or edema) ([5]; in vivo): non-reactive
skin sensitization ([5]; in vivo): do not cause skin sensitization
toxicity ([5]; low doses required for anti-scarring activity, cutaneous injection): non toxic
antimicrobial activity against Gram-positive bacteria [6]: high antimicrobial activity
activity against fungi (fungi such as Candida): inactive
activity against Gram-negative bacteria (Gram-negative bacteria): inactive
